Drawing on article PMC8016998, “Identification of potential therapeutic antimicrobial peptides against Acinetobacter baumannii in a mouse model of pneumonia” (Scientific Reports, 2021), this text covers MBC and MIC for eleven compounds.

In brackets after ≈: the same amount, converted by molar mass. No end group written: not given here. Where only a bound is given, the exact number is not on record here.

Experiment [1] deals with Acinetobacter baumannii 17,978. In kind it is cell-based. As to conditions: 17,978, 24 h.
Experiment [2] deals with Acinetobacter baumannii 19,606. In kind it is cell-based. As to conditions: 19,606, 24 h.
Protocol: MBC were determined by extending the MIC procedure in sterilized 96-well polypropylene microtiter plates according to the broth microdilution guidelines of the Clinical and Laboratory Standards Institute with some modification[47]. […] In addition, 10 µL was drawn from each well with no visible turbidity onto LB agar plates and incubated for 24 h at 37 °C. The lowest concentration showing no visible growth on agar subculture was used as the MBC value. All experiments were performed in triplicate.
Experiment [3] concerns MDRAB strain MO91. Type of experiment: cell-based, Acinetobacter baumannii. As to conditions: 24 h. Here is the method:
(§1) All AMPs and TP4 derivatives used in this study were synthesized by Kelowna International Scientific Inc. (Taipei City, Taiwan) with more than 95% purity, and their molecular weights were verified by mass spectrum analysis. MBC were determined by extending the MIC procedure in sterilized 96-well polypropylene microtiter plates according to the broth microdilution guidelines of the Clinical and Laboratory Standards Institute with some modification. Briefly, 5 × 10^5 CFU/mL of bacteria were inoculated in LB medium containing AMPs or antibiotic at final concentrations ranging from 512 to 1 μg/mL (from serial twofold dilutions). After incubation for 24 h at 37 °C, the lowest concentration showing no visible growth was used as the MIC value. In addition, 10 µL was drawn from each well with no visible turbidity onto LB agar plates and incubated for 24 h at 37 °C. The lowest concentration showing no visible growth on agar subculture was used as the MBC value. All experiments were performed in triplicate.

For experiment [4], the system named is MDRAB strain BF50. Type of experiment: cell-based, Acinetobacter baumannii. The settings on record: 24 h. Here is the method:
as §1

Consider `CC[C@H](C)[C@H](NC(=O)[C@H](CO)NC(=O)[C@H](Cc1ccccc1)NC(=O)[C@H](CC(C)C)NC(=O)CNC(=O)CNC(=O)[C@@H](NC(=O)[C@@H](NC(=O)[C@H](Cc1c[nH]cn1)NC(=O)[C@H](Cc1c[nH]cn1)NC(=O)[C@@H](NC(=O)[C@@H](N)Cc1ccccc1)[C@@H](C)CC)[C@@H](C)CC)[C@@H](C)CC)C(=O)NCC(=O)N[C@@H](CCCCN)C(=O)N[C@H](C(=O)N[C@H](C(=O)N[C@@H](Cc1c[nH]cn1)C(=O)N[C@@H](CCCNC(=N)N)C(=O)N[C@@H](CC(C)C)C(=O)N[C@H](C(=O)N[C@@H](CCCNC(=N)N)C(=O)N[C@@H](CCCNC(=N)N)C(=O)N[C@@H](CCCNC(=N)N)C(=O)N[C@@H](CCCNC(=N)N)C(=O)N[C@@H](CCCNC(=N)N)C(=O)O)[C@@H](C)CC)[C@@H](C)CC)[C@@H](C)CC` [A12I/A15I], for which the MBC in experiment [1] amounted to 64 µg/mL (≈ 20.9 µM); in experiment [2], 128 µg/mL (≈ 41.8 µM); in experiment [3] it was 128 µg/mL (≈ 41.8 µM); in experiment [4] it was 128 µg/mL (≈ 41.8 µM). Also, the MIC came out at 64 µg/mL (≈ 20.9 µM) in experiment [1], 32 µg/mL (≈ 10.4 µM) in experiment [2], 32 µg/mL (≈ 10.4 µM) in experiment [3] and 64 µg/mL (≈ 20.9 µM) in experiment [4].
Regarding AAHHIIGGLFSAGKAIHRLIRRRRR [F1A/I2A], the MBC in experiment [1] amounted to 32 µg/mL; in experiment [2], 16 µg/mL; in experiment [3], 32 µg/mL; in experiment [4] it was 32 µg/mL. Moreover, the MIC turned out to be 32 µg/mL in experiment [1], 16 µg/mL in experiment [2], 32 µg/mL in experiment [3] and 16 µg/mL in experiment [4].
For FIAAIIGGLFSAGKAIHRLIRRRRR [H3A/H4A], the MBC in experiment [1] was found to be 128 µg/mL; in experiment [2], 64 µg/mL; in experiment [3], 256 µg/mL; in experiment [4], 128 µg/mL. Besides, the minimal inhibitory concentration (MIC) in experiment [1], in experiment [2], in experiment [3] and in experiment [4] was 64 µg/mL throughout.
Regarding FIHHAAGGLFSAGKAIHRLIRRRRR [I5A/I6A], the MBC in experiment [1] is 32 µg/mL; in experiment [2], 64 µg/mL; in experiment [3], 128 µg/mL; in experiment [4], 64 µg/mL. Moreover, the MIC is 32 µg/mL in experiment [1], 64 µg/mL in experiment [2], 64 µg/mL in experiment [3] and 32 µg/mL in experiment [4].
Turning to FIHHIIGGAASAGKAIHRLIRRRRR [L9A/F10A], the MBC came out at 64 µg/mL in experiment [1], 128 µg/mL in experiment [2], 128 µg/mL in experiment [3] and 64 µg/mL in experiment [4]. For the same compound, the MIC in experiment [1] is 64 µg/mL; in experiment [2], 64 µg/mL; in experiment [3], 128 µg/mL; in experiment [4], 64 µg/mL.
With “FIHHIIGGLFSAGKAAHRLIRRRRR [Peptide I16A]”, the MBC worked out at 32 µg/mL in experiment [1], 32 µg/mL in experiment [2], 32 µg/mL in experiment [3] and 16 µg/mL in experiment [4]. For the same compound, the MIC was determined as 16 µg/mL in experiment [1], 32 µg/mL in experiment [2], 16 µg/mL in experiment [3] and 16 µg/mL in experiment [4].
“FIHHIIGGLFSAGKAEHRLIRRRRR [Peptide I16E]”: the MBC in experiment [1], in experiment [2], in experiment [3] and in experiment [4] was greater than 256 µg/mL in each case. For the same compound, the MIC in experiment [1], in experiment [2], in experiment [3] and in experiment [4] was greater than 256 µg/mL each time.
Consider FIHHIIGGLFSAGKAIHRHHRRRRR [L19H/I20H], for which the MBC in experiment [1] came to 32 µg/mL; in experiment [2] it was 64 µg/mL; in experiment [3], 32 µg/mL; in experiment [4], 32 µg/mL. Moreover, the MIC was found to be 32 µg/mL in experiment [1], 64 µg/mL in experiment [2], 32 µg/mL in experiment [3] and 32 µg/mL in experiment [4].
Turning to FIHHIIGGLFSAGKAIHSLIHRRRR [R18S/R21H], the MBC turned out to be 32 µg/mL in experiment [1], 32 µg/mL in experiment [2], 32 µg/mL in experiment [3] and 64 µg/mL in experiment [4]. Moreover, the MIC in experiment [1] is 16 µg/mL; in experiment [2], 32 µg/mL; in experiment [3], 32 µg/mL; in experiment [4], 16 µg/mL.
Regarding “FIHHIIGGLFSAGKARHRLIRRRRR [Peptide I16R]”, the MBC in experiment [1] worked out at 128 µg/mL; in experiment [2] it was 64 µg/mL; in experiment [3], 256 µg/mL; in experiment [4] it was 128 µg/mL. In addition, the MIC came to 128 µg/mL in experiment [1], 64 µg/mL in experiment [2], 64 µg/mL in experiment [3] and 64 µg/mL in experiment [4].
As to FIHHIIGGLFSVGKHIHRLIRRRRR [A12V/A15H], the MBC in experiment [1] turned out to be 32 µg/mL; in experiment [2], 32 µg/mL; in experiment [3], 256 µg/mL; in experiment [4], 128 µg/mL. Moreover, the MIC in experiment [1], in experiment [2], in experiment [3] and in experiment [4] was 16 µg/mL throughout.

For orientation: MBC means the lowest tested concentration that kills the bacteria rather than only halting them. In general, MIC refers to the lowest concentration found to suppress growth.
